Each block holds one molecule with its values, some of them ahead of it. No end group written: not given here.
Experiments:
[1] = test system: washed platelets; experiment: Platelet aggregation of human washed platelets; type: cell-based; conditions: for peptide concentration producing maximal platelet aggregation / platelet aggregation induced by peptide: washed platelets; for platelet aggregation induced by peptide: 1 mM peptide (RA-6mer 1 mM or 10 mM; AL-10mer independent of concentration)
Protocol: (§1) Platelet isolation, aggregation, and activation. Human washed platelets were prepared and resuspended in Tyrode's Buffer at 2×10^8/mL as described (Edelstein et al., Nat Med. 2013; 19(12):1609-1616). For human and dog platelet comparisons, platelets were prepared using a modified human platelet protocol with final concentrations of […] (Cayman Chemical, Ann Arbor, MI, USA) used during centrifugation steps. Centrifugations after Tyrode's washes was decreased to 1,250×g as described in Cremer et al., PLOS One. 2019; 14(11): e0224891. Platelet aggregation was measured under stirring conditions at 37° C. using a PAP-8E aggregometer after treatment with the following agonists: arachidonic acid (Bio/Data Corporation, Horsham, PA, USA), cathepsin G, elastase, proteinase 3 (Athens Research Group), α-thrombin (Sigma, St. Louis, MO, USA), PAR-1 peptide (SFLLRN) (GL Biochem, China). P-selectin and PAC-1 were measured as previously described (Yee et al., J Thromb Haemost. 2006; 4(9):2043-2050; Tourdot et al., Arterioscler Thromb Vasc Biol. 2014; 34(12):2644-2650).
(§2) GYPGQV-NH2 (SEQ ID NO: 5), RALLLGWVPTR-NH2 (SEQ ID NO: 1), ALLLGWVPTR-NH2 (SEQ ID NO: 2), RALLLG-NH2 (SEQ ID NO: 4). Peptides were synthesized by BIOMATIK (Wilmington, DE, USA) at similar purities. All peptides were suspended in 50% DMSO and 50% ethanol. To measure platelet activation, washed platelets were stimulated with various concentrations of the peptide in the presence of CD41-APC, P-selectin (PE) and PAC-1 (FITC) for 15 minutes at 37° C. and then fixed with FACS Lysis Buffer. Samples were immediately run on a Cytoflex flow cytometer. In some experiments, platelets were stimulated with peptides and platelet aggregation performed as described above. Platelet calcium flux was induced by RALLLGWVPTR (2 mM; SEQ ID NO: 1), CatG (500 nM), ALLLGWVPTR (2 mM; SEQ ID NO: 2) or tyrodes buffer and monitored as described above.

[2] = biological target: T1, PAR-1 (Homo sapiens, UniProt P25116); experiment: Antagonist study: PAR-1 inhibitor in platelet aggregation; type: cell-based; conditions: 100 nM VPX
T1 construct: endogenous in cells; host or cells: human washed platelets
T1 sequence (P25116 22-425): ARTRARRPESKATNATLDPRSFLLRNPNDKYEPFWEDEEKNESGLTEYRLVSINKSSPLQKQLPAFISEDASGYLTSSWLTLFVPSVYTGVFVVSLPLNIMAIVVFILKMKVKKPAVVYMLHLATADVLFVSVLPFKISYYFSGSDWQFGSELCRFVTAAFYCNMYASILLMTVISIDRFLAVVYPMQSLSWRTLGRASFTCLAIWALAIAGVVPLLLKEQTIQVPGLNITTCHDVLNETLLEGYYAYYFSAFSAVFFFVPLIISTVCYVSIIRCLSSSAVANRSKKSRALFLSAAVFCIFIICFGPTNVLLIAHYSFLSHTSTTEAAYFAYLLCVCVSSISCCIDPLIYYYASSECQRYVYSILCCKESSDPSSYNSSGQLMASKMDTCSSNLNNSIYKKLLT
Protocol: Human washed platelets were prepared and resuspended in Tyrode's Buffer at 2×10^8/mL as described (Edelstein et al., Nat Med. 2013; 19(12):1609-1616). […] Platelet aggregation was measured under stirring conditions at 37° C. using a PAP-8E aggregometer after treatment with the following agonists: arachidonic acid (Bio/Data Corporation, Horsham, PA, USA), cathepsin G, elastase, proteinase 3 (Athens Research Group), α-thrombin (Sigma, St. Louis, MO, USA), PAR-1 peptide (SFLLRN) (GL Biochem, China).
Antagonist Studies. Washed platelets were incubated for 15 minutes at 37° C. with PAR-4 blocking antibody RC3 (100 μg/mL) (generous gift from Regeneron Pharmaceuticals; French et al., Blood Adv. 2018; 2(11): 1283-1293), PAR-1 inhibitor vorapaxar (100 nM), and/or PAR-4 inhibitor BMS-986120 (400 nM) (Cayman Chemical, Ann Arbor, MI, USA).

[3] = Ability of peptide to go into solution; type: physicochemical; conditions: numerous attempts with different solvents
Source text: Having said that, perhaps the hydrophobic portion of the C-terminus of RALLLGWVPTR (SEQ ID NO: 1) stabilizes the tethered ligand on the platelet plasma membrane.

[4] = biological target: T2, WT human PAR4 (hPAR4) (Homo sapiens, UniProt Q96RI0); experiment: PAR4 calcium flux assay in HEK293T/17 cells expressing WT PAR4; type: cell-based; conditions: 1.5 mM peptide; HEK293T/17 cells
T2 construct: Flag; expressed in transfected cells; host or cells: HEK293T/17 (ATCC CRL-11268)
T2 sequence (Q96RI0 18-385): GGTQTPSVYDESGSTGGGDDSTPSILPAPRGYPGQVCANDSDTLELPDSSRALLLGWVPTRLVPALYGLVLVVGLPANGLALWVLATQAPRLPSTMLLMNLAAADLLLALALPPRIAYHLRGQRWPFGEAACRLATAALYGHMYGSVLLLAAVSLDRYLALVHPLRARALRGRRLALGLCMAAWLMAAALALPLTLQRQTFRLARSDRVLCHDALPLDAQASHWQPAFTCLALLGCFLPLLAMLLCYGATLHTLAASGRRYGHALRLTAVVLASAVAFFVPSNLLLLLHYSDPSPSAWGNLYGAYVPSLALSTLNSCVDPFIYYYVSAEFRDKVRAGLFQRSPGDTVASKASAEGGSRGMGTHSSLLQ
Protocol: PAR4 calcium flux assays. PAR4-dependent calcium flux was measured using Fura2-QBT in platelets and HEK293T/17 cells with wild-type (WT) and mutant PAR4 (Tourdot et al., Arterioscler Thromb Vasc Biol. 2014; 34(12):2644-2650).
PAR4 mutant calcium flux assays. Using Quikchange Lightning Site-Directed mutagenesis (Agilent) per manufacturing instructions, pCMV-Flag-PAR4-S66E, pCMV-Flag-PAR4-S67E, and pCMV-Flag-PAR4-R68E were generated from mutation of pCMV-Flag-PAR4 and confirmed by sequencing (University of Utah DNA Sequencing Core). Prior to transfection, HEK293T/17 cells (ATCC CRL-11268) were seeded at 4.5×10^4/mL. The following day, cells were transfected with the plasmid of interest using Lipofectamine 2000 (Invitrogen, Carlsbad, CA, USA). Twenty-four hours after transfection, media was removed and replaced with Optimem w/Glutamax (Gibco, Carlsbad, CA, USA) containing vorapaxar (100 nM) (Cayman Chemical, Ann Arbor, MI, USA) and Fura2-QBT (Molecular Devices). Following incubation for 1 hour at 37° C., plate was placed in the Flexstation 3 (Molecular Devices) where agonists, Tyrode's Buffer, cathepsin G (2.5 μM), or α-thrombin (1.5 U/mL), were injected onto cells and calcium mobilization was monitored and recorded.

[5] = test system: washed platelets; experiment: Platelet activation by flow cytometry (PAC-1 binding, P-selectin); type: cell-based, human; conditions: 1 mM peptide vs buffer; washed platelets
Protocol: as §1, §2

[6] = test system: washed platelets; experiment: Platelet calcium flux assay; type: cell-based, human; conditions: CatG 500 nM; for platelet calcium flux: peptides 2 mM, FURA2-AM loaded washed platelets
Protocol: Platelet calcium flux assay. Washed platelets were incubated at 37° C. for 1 hour in Tyrode's buffer (supplemented with pgel and heparin) with Fura-2AM (final concentration 2 μM). Platelets were washed and resuspended to a final concentration of 4×10^8/mL. Platelets were dispensed into a Costar 96-well half area clear bottom plate and placed in the Flexstation 3 (Molecular Devices) where cathepsin G (500 nM), buffer, or peptides (2 mM) were injected onto cells and calcium flux monitored.
as §2

[7] = test system: dog washed platelets; experiment: Platelet aggregation of dog washed platelets; type: cell-based; conditions: 1 U/mL human thrombin, 1 μM human CatG or 1 mM RA-11mer
Source text: (§3) Animal studies. Mouse platelets were isolated as previously described from C57BL/6 mice (Denorme et al., Blood. 2020; 135(6):429-440). Dog platelets were isolated from whole blood drawn into ACD using a similar isolation procedure as for human platelets. All animal studies were approved by the University of Utah Institutional Animal Care and Use Committee (18-10012).
(§4) Platelet and neutrophil isolation. Platelets and neutrophils were isolated as previously described (Yost et al., J Clin Invest. 2016; 126(10):3783-3798). Platelet isolation from dogs, rats and mice was approved by the IACUC. Platelet activation and aggregation were performed as previously described (Manne et al., Blood. 2020; 136(11): 1317-1329).
as §1

[8] = test system: mouse washed platelets; experiment: Platelet aggregation of mouse washed platelets; type: cell-based; conditions: 1 U/mL human thrombin, 1 μM human CatG or 1 mM RA-11mer
Source text: as §3, §4, §1

[9] = test system: rat washed platelets; experiment: Platelet aggregation of rat washed platelets; type: cell-based; conditions: 1 U/mL human thrombin, 1 μM human CatG or 1 mM RA-11mer
Protocol: as §4, §1

Molecule: GYPGQV-NH2 [the thrombin-generated PAR4 tethered ligand, reference compound]
- peptide concentration producing maximal platelet aggregation [1]: 6 mM

- effect on thrombin-induced platelet aggregation ([2]; 0.1 U/mL thrombin): abolished
- effect on PAR1 activation by PAR1 activation peptide ([2]; SFLLRN 10 μM): efficiently ablated PAR1 activation
Molecule: CCOC(=O)N[C@@H]1CC[C@@H]2[C@@H](C1)C[C@H]1C(=O)O[C@H](C)[C@H]1[C@H]2/C=C/c1ccc(-c2cccc(F)c2)cn1 [VPX, vorapaxar]

Molecule: RALLLG-NH2 [6mer from the CatG tethered ligand]
- platelet aggregation induced by peptide [1]: not able to induce platelet aggregation

Molecule: RALLLGWV [RALLLGWV 8mer, 8-mer PAR4 Tethered Ligand Fragment, intermediate length peptide]
- ability to go into solution [3]: inability to go into solution

- calcium flux in HEK cells transfected with WT PAR4 compared with mock [4]: induced calcium flux
Molecule: RALLLGWVPTR (RALLLGWVPTR-NH2) [synthetic peptide representing the CatG-generated PAR4 tethered ligand]
- granule release (P-selectin expression) [5]: increased
- integrin activation (PAC-1 binding) [5]: increased
- platelet aggregation, species comparison: humans ([1]; 1 U/mL human thrombin, 1 μM human CatG or 1 mM RA-11mer): induced aggregation
- potency as activator of PAR4, comparison ([1]; from platelet aggregation data): more potent activator of PAR4 than the thrombin-generated tethered ligand
- peptide concentration producing maximal platelet aggregation [1]: 1 mM
- platelet aggregation induced by peptide [1]: increased
- peak platelet calcium flux, CatG compared with RALLLGWVPTR ([6]; RA-11mer 2 mM): similar
- platelet calcium flux [6]: significant and sustained calcium flux
- platelet aggregation, species comparison: dogs [7]: induced aggregation
- platelet aggregation, species comparison: mice [8]: induced aggregation only in humans and dogs
- platelet aggregation, species comparison: rats [9]: induced aggregation only in humans and dogs

Molecule: ALLLGWVPTR (ALLLGWVPTR-NH2) [10-mer PAR4 Tethered Ligand Fragment]
- platelet aggregation induced by peptide [1]: no discernable platelet aggregation
- platelet calcium flux [6]: no discernable

From patent publication US12077607B2, “Functional and therapeutic effects of PAR4 cleavage by cathepsin G” (UNIVERSITY OF UTAH RESEARCH FOUNDATION, priority 2021, dated 2024)
